{"source": "paper PMC10713630", "about": "“Elucidation of the structural basis for ligand binding and translocation in conserved insect odorant receptor co-receptors” (Nature Communications, 2023)", "key": {"DmelOrco Y390S": {"biological_target": "DmelOrco Y390S (Drosophila melanogaster, UniProt Q9VNB5, Y390S)", "sequence (Q9VNB5 whole entry Y390S, the tested form may be a part)": "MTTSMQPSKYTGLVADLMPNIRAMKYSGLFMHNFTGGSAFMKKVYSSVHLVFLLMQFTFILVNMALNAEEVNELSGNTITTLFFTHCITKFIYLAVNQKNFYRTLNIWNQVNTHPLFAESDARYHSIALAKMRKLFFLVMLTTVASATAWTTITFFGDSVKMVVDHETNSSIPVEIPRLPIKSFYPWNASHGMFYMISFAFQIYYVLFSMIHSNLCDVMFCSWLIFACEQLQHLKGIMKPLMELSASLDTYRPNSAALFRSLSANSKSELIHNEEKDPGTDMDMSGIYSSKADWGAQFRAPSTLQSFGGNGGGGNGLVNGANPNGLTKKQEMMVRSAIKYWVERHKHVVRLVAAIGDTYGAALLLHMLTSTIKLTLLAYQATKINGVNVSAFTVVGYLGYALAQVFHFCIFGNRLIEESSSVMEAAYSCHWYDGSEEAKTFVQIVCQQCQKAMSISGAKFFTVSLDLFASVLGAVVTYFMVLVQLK", "assay": "TEVC recording of VUAA1-induced current, DmelOrco Y390S in Xenopus oocytes", "assay_type": "cell-based", "settings": "500 µM VUAA1, TEVC", "text": "(§1) All Orco gene sequences were optimized[63] for protein expression in Xenopus laevis oocytes with the GenSmartTM Codon optimization Tool and subcloned into a pGEMHE-derived vector. The wildtype gene of Drosophila melanogaster Orco (DmelOrco) was synthesized by Genscript and subcloned with XmaI/XhoI cloning sites. Site-directed mutagenesis of DmelOrco was done by PCR with the Q5® site directed mutagenesis kit (NEB) using primers optimized with the NEBase Changer online tool and following the supplier’s protocol. After transformation of commercial competent bacteria (XL10 Gold) by standard heat-shock protocol and overnight culture in ampicillin-containing LB plates, positive clones were identified by electrophoretic restriction profile and external sequencing (Genewiz). DNAs of positive clones were amplified with Qiagen MidiPrep Kit and the ORF was fully sequenced. For in vitro transcription, DNAs were linearized with restriction enzyme NotI that cuts a unique site in the 3′ region of the polyA tail. […] DNA and RNA were analyzed by agarose-gel electrophoresis and quantified by spectrophotometry. […]\n(§2) Whole cell currents were recorded with the two-electrode voltage-clamp (TEVC) technique with the HiClamp robot (MultiChannel System). […] Data were extracted with M. Vivaudou’s programs[65] and statistically analyzed with Prism 8 (Graphpad)."}, "DmelOrco T80W": {"biological_target": "DmelOrco T80W (Drosophila melanogaster, UniProt Q9VNB5, T80W)", "sequence (Q9VNB5 whole entry T80W, the tested form may be a part)": "as the sequence (Q9VNB5 whole entry Y390S, the tested form may be a part) above, with T80W, S390Y counted along it", "assay": "TEVC recording of VUAA1-induced current, DmelOrco T80W in Xenopus oocytes", "assay_type": "cell-based", "set-up": "VUAA1-induced current, T80W: unit not given here", "settings": "for VUAA1-induced current, T80W: individual oocytes", "text": "(§3) All Orco gene sequences were optimized[63] for protein expression in Xenopus laevis oocytes with the GenSmartTM Codon optimization Tool and subcloned into a pGEMHE-derived vector. The wildtype gene of Drosophila melanogaster Orco (DmelOrco) was synthesized by Genscript and subcloned with XmaI/XhoI cloning sites. Site-directed mutagenesis of DmelOrco was done by PCR with the Q5® site directed mutagenesis kit (NEB) using primers optimized with the NEBase Changer online tool and following the supplier’s protocol. After transformation of commercial competent bacteria (XL10 Gold) by standard heat-shock protocol and overnight culture in ampicillin-containing LB plates, positive clones were identified by electrophoretic restriction profile and external sequencing (Genewiz). DNAs of positive clones were amplified with Qiagen MidiPrep Kit and the ORF was fully sequenced. For in vitro transcription, DNAs were linearized with restriction enzyme NotI that cuts a unique site in the 3′ region of the polyA tail. The linearized DNAs were purified by the standard phenol:chloroform extraction method and transcribed into mRNA using the T7 ultra mMessage mMachine kit (Thermo Fisher Scientific). mRNAs were purified with the NucleoSpin RNA plus XS kit (Machery-Nagel). DNA and RNA were analyzed by agarose-gel electrophoresis and quantified by spectrophotometry.\nXenopus laevis oocytes were prepared, as previously described. Briefly, oocytes were defolliculated after surgical retrieval by type 1 A collagenase over 2-3 h under smooth horizontal agitation. They were manually selected and incubated at 19 °C in modified-Barth’s solution (1 mM KCl, 0.82 mM MgSO4, 88 mM NaCl, 2.4 mM NaHCO3, 0.41 mM CaCl2, Ca(NO3)2 0.3 mM, 16 mM HEPES, pH 7.4) supplemented with 100 U mL^−1 of penicillin and streptomycin and 0.1 mg mL^−1 of gentamycin. Each oocyte was micro-injected with the Nanoject instrument (Drummond) with 50 nL of 20 ng of mRNA coding for the Orco of interest. Injected oocytes were incubated individually in 96-well plates for 4 days at 19 °C in the same buffer. Different batches of oocytes have been tested per construct. The results of the mutants of interest have been confirmed by a second set of experiments comparing the amplitudes with WT in the same day and from the same batch of oocytes (Supplementary Fig. 11).\nWhole cell currents were recorded with the two-electrode voltage-clamp (TEVC) technique with the HiClamp robot (MultiChannel System). Microelectrodes were filled with 3 M KCl. The high K^+ buffer used for recordings was composed of 91 mM KCl, 1 mM MgCl2, 1.8 mM CaCl2, 5 mM HEPES, pH 7.4. Membrane voltage was clamped to −50 mV and VUAA1 was applied for 60 s. Data were extracted with M. Vivaudou’s programs[65] and statistically analyzed with Prism 8 (Graphpad)."}, "DmelOrco I181A": {"biological_target": "DmelOrco I181A (Drosophila melanogaster, UniProt Q9VNB5, I181A)", "sequence (Q9VNB5 whole entry I181A, the tested form may be a part)": "as the sequence (Q9VNB5 whole entry Y390S, the tested form may be a part) above, with I181A, S390Y counted along it", "assay": "TEVC recording of VUAA1-induced current, DmelOrco I181A in Xenopus oocytes", "assay_type": "cell-based", "set-up": "VUAA1-induced current, i181A: unit not given here", "text": "as §1, §2"}, "DmelOrco V206A": {"biological_target": "DmelOrco V206A (Drosophila melanogaster, UniProt Q9VNB5, V206A)", "sequence (Q9VNB5 whole entry V206A, the tested form may be a part)": "as the sequence (Q9VNB5 whole entry Y390S, the tested form may be a part) above, with V206A, S390Y counted along it", "assay": "TEVC recording of VUAA1-induced current, DmelOrco V206A in Xenopus oocytes", "assay_type": "cell-based", "set-up": "VUAA1-induced current, V206A: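 current amplitude in µA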", "text": "as §1, §2"}, "DmelOrco Y397S": {"biological_target": "DmelOrco Y397S (Drosophila melanogaster, UniProt Q9VNB5, Y397S)", "sequence (Q9VNB5 whole entry Y397S, the tested form may be a part)": "as the sequence (Q9VNB5 whole entry Y390S, the tested form may be a part) above, with S390Y, Y397S counted along it", "assay": "TEVC recording of VUAA1-induced current, DmelOrco Y397S in Xenopus oocytes", "assay_type": "cell-based", "text": "as §1, §2"}, "DmelOrco Y397F": {"biological_target": "DmelOrco Y397F (Drosophila melanogaster, UniProt Q9VNB5, Y397F)", "sequence (Q9VNB5 whole entry Y397F, the tested form may be a part)": "as the sequence (Q9VNB5 whole entry Y390S, the tested form may be a part) above, with S390Y, Y397F counted along it", "assay": "TEVC recording of VUAA1-induced current, DmelOrco Y397F in Xenopus oocytes", "assay_type": "cell-based", "set-up": "VUAA1-induced current, Y397F: unit not given here", "text": "as §1, §2"}, "DmelOrco F83A": {"biological_target": "DmelOrco F83A (Drosophila melanogaster, UniProt Q9VNB5, F83A)", "sequence (Q9VNB5 whole entry F83A, the tested form may be a part)": "as the sequence (Q9VNB5 whole entry Y390S, the tested form may be a part) above, with F83A, S390Y counted along it", "assay": "TEVC recording of VUAA1-induced current, DmelOrco F83A in Xenopus oocytes", "assay_type": "cell-based", "settings": "500 µM VUAA1, TEVC", "text": "as §1, §2"}, "DmelOrco F83W": {"biological_target": "DmelOrco F83W (Drosophila melanogaster, UniProt Q9VNB5, F83W)", "sequence (Q9VNB5 whole entry F83W, the tested form may be a part)": "as the sequence (Q9VNB5 whole entry Y390S, the tested form may be a part) above, with F83W, S390Y counted along it", "assay": "TEVC recording of VUAA1-induced current, DmelOrco F83W in Xenopus oocytes", "assay_type": "cell-based", "settings": "500 µM VUAA1, TEVC", "text": "as §1, §2"}, "DmelOrco F84A": {"biological_target": "DmelOrco F84A (Drosophila melanogaster, UniProt Q9VNB5, F84A)", "sequence (Q9VNB5 whole entry F84A, the tested form may be a part)": "as the sequence (Q9VNB5 whole entry Y390S, the tested form may be a part) above, with F84A, S390Y counted along it", "assay": "TEVC recording of VUAA1-induced current, DmelOrco F84A in Xenopus oocytes", "assay_type": "cell-based", "text": "as §3\nXenopus laevis oocytes were prepared, as previously described. Briefly, oocytes were defolliculated after surgical retrieval by type 1 A collagenase over 2-3 h under smooth horizontal agitation. They were manually selected and incubated at 19 °C in modified-Barth’s solution (1 mM KCl, 0.82 mM MgSO4, 88 mM NaCl, 2.4 mM NaHCO3, 0.41 mM CaCl2, Ca(NO3)2 0.3 mM, 16 mM HEPES, pH 7.4) supplemented with 100 U mL^−1 of penicillin and streptomycin and 0.1 mg mL^−1 of gentamycin. […]\nas §2"}, "DmelOrco M210L": {"biological_target": "DmelOrco M210L (Drosophila melanogaster, UniProt Q9VNB5, M210L)", "sequence (Q9VNB5 whole entry M210L, the tested form may be a part)": "as the sequence (Q9VNB5 whole entry Y390S, the tested form may be a part) above, with M210L, S390Y counted along it", "assay": "TEVC recording of VUAA1-induced current, DmelOrco M210L in Xenopus oocytes", "assay_type": "cell-based", "settings": "500 µM VUAA1, TEVC", "text": "as §1, §2"}, "DmelOrco L141W": {"biological_target": "DmelOrco L141W (Drosophila melanogaster, UniProt Q9VNB5, L141W)", "sequence (Q9VNB5 whole entry L141W, the tested form may be a part)": "as the sequence (Q9VNB5 whole entry Y390S, the tested form may be a part) above, with L141W, S390Y counted along it", "assay": "TEVC recording of VUAA1-induced current, DmelOrco L141W in Xenopus oocytes", "assay_type": "cell-based", "settings": "500 µM VUAA1, TEVC", "text": "as §1, with “sequenced.” for “sequenced. For in vitro transcription, DNAs were linearized with restriction enzyme NotI that cuts a unique site in the 3′ region of the polyA tail.”\nWhole cell currents were recorded with the two-electrode voltage-clamp (TEVC) technique with the HiClamp robot (MultiChannel System). […] Data were extracted with M. Vivaudou’s programs[65] and statistically analyzed with Prism 8 (Graphpad). […]\n100 by 500 µM of the ligand VUAA1 and measured by TEVC recordings on DmelOrco WT and mutants […]"}, "AgamOrco/AgamOR65": {"system": "AgamOrco/AgamOR65", "settings": "AgamOrco/AgamOR65; ref Tailor et al. 1; cited from earlier work"}, "MhraOR5": {"system": "MhraOR5", "set-up": "method as in PMID 34349260", "settings": "cited from earlier work"}, "MdesOrco H81F": {"system": "MdesOrco H81F", "settings": "H81 replaced by phenylalanine; cited from earlier work"}}, "note": "pEC50: −log10 of the molar value. Where “and” joins values, the source holds several entries; their conditions need not be identical. Equal values may be shown once. Entries after “also recorded” stand apart in the source; their conditions may differ."}
{"smiles": "CCc1ccc(NC(=O)CSc2nnc(-c3cccnc3)n2CC)cc1", "note": "[VUAA1, N-(4-ethylphenyl)−2-((4-ethyl-5-(3-pyridinyl)−4H-1,2,4-triazol-3-yl)thio)acetamide]", "values": [{"measurement": "Current induced by VUAA1 (median)", "setting": "DmelOrco Y390S", "value": 2.44, "unit": "µA"}, {"measurement": "Response to VUAA1 compared with WT", "setting": "DmelOrco T80W; 500 µM VUAA1, TEVC, T80W", "value": "significantly reduced or abolished the activation"}, {"measurement": "VUAA1-induced current, T80W", "setting": "DmelOrco T80W; Fig.4b", "value": "0.01 and 0.63 and 0.07 and 0.04 and 0.05 and 0.57 and 0.84 and 0.02"}, {"measurement": "VUAA1-induced current, T80W", "setting": "DmelOrco T80W; Fig.4i dose-response, VUAA1 10 µM (Log(M) -5)", "value": "0.03 and 0.06 (2×) and 0.07 and 0.2 (2×) and 0 and 0.12"}, {"measurement": "VUAA1-induced current, T80W", "setting": "DmelOrco T80W; Fig.4i dose-response, VUAA1 25 µM (Log(M) -4.6)", "value": "0.05 and 0.08 and 0.11 and 0.35 and 0.01 and 0.07 and 0.14 and 0.15"}, {"measurement": "VUAA1-induced current, T80W", "setting": "DmelOrco T80W; Fig.4i dose-response, VUAA1 50 µM (Log(M) -4.3)", "value": "0.09 and 0.1 and 0.13 and 0.45 and 0.01 and 0.05 and 0.31 and 0.15"}, {"measurement": "VUAA1-induced current, T80W", "setting": "DmelOrco T80W; Fig.4i dose-response, VUAA1 100 µM (Log(M) -4)", "value": "0.12 and 0.1 and 0.13 (2×) and 0.42 and 0 and 0.08 and 0.29"}, {"measurement": "VUAA1-induced current, T80W", "setting": "DmelOrco T80W; Fig.4i dose-response, VUAA1 500 µM (Log(M) -3.3)", "value": "0.19 and 0.12 (3×) and 0.14 and 0.45 and 0.01 and 0.07"}, {"measurement": "VUAA1-induced current, T80W", "setting": "DmelOrco T80W; Fig.4i dose-response, VUAA1 1000 µM (Log(M) -3)", "value": "0.26 and 0.16 and 0.18 and 0.47 and 0.02 and 0.23 and 0.31 and 0.1"}, {"measurement": "Imax", "setting": "DmelOrco T80W; concentration-effect curve of VUAA1, TEVC, T80W", "value": 0.23, "unit": "µA"}, {"measurement": "Response to VUAA1 compared with WT", "setting": "DmelOrco I181A; 500 µM VUAA1, TEVC, I181A", "value": "did not significantly affect the amplitude of activation"}, {"measurement": "VUAA1-induced current, i181A", "setting": "DmelOrco I181A; Fig.4b, individual oocytes", "value": "2.04 and 7.33 and 5.46 and 2.9 and 2.3 and 1.5 and 5.38 and 11.56 and 4.17 and 3.69"}, {"measurement": "Response to VUAA1 compared with WT", "setting": "DmelOrco V206A; 500 µM VUAA1, TEVC, V206A", "value": "did not significantly affect the amplitude of activation"}, {"measurement": "VUAA1-induced current, V206A", "setting": "DmelOrco V206A; Fig.4b, individual oocytes", "value": "5.13 and 5.19 and 4.77 and 3.78 and 5.39 and 5.08 and 2.86 and 2.36"}, {"measurement": "Response to VUAA1 compared with WT", "setting": "DmelOrco Y397S; 500 µM VUAA1, TEVC, Y397S", "value": "no significant effect; also recorded: did not significantly change the amplitude of activation"}, {"measurement": "VUAA1-induced current, Y397S", "setting": "DmelOrco Y397S; Fig.4b, individual oocytes", "value": "0.98 and 1.78 and 4.23 and 0.82 and 0.77 and 1.48 and 8.3 and 6.29 and 5.87 and 5.52 and 1.76 and 2.18 and 1.83"}, {"measurement": "Response to VUAA1 compared with WT", "setting": "DmelOrco Y397F; 500 µM VUAA1, TEVC, Y397F", "value": "did not significantly change the amplitude of activation"}, {"measurement": "VUAA1-induced current, Y397F", "setting": "DmelOrco Y397F; Fig.4b, individual oocytes", "value": "14.1 and 7.4 and 4.67 and 7.65 and 5.6 and 7.22 and 3.47 and 4.51 and 1.74 and 9.4 and 9.69 and 15.89"}, {"measurement": "Current induced by VUAA1 (median)", "setting": "DmelOrco F83A", "value": 2.33, "unit": "µA"}, {"measurement": "Response to VUAA1 compared with WT", "setting": "DmelOrco F83W", "value": "decreased the response; also recorded: significant decrease in the response"}, {"measurement": "pEC50", "setting": "DmelOrco F84A", "value": 3.98}, {"measurement": "Current induced by VUAA1 (median)", "setting": "DmelOrco F84A; 500 µM VUAA1, TEVC, F84A", "value": 0.68, "unit": "µA"}, {"measurement": "Imax", "setting": "DmelOrco F84A; concentration-effect curve of VUAA1, TEVC, F84A", "value": 1.01, "unit": "µA"}, {"measurement": "Current induced by VUAA1 (median)", "setting": "DmelOrco M210L", "value": 6.19, "unit": "µA"}, {"measurement": "Response to VUAA1 compared with WT", "setting": "DmelOrco L141W", "value": "did not induce significant change"}, {"measurement": "pEC50", "setting": "AgamOrco/AgamOR65", "value": 4.43}, {"measurement": "Activation of MhraOR5", "setting": "MhraOR5", "value": "not by VUAA1"}, {"measurement": "Response of MdesOrco H81F to VUAA1", "setting": "MdesOrco H81F", "value": "induced a response to VUAA1"}]}
